Patent US11266643B2, “Triaryl compounds for treatment of PD-L1 diseases” (CHEMOCENTRYX, INC., priority 2019, dated 2022)

Each molecule was assayed against human PD-L1 (Homo sapiens (Human), UniProt Q9NZQ7) (assay: Enzyme-Linked Immunosorbent Assay (ELISA), PD-1/PD-L1 binding). Settings: plate-coated human PD-L1, biotinylated Human PD-1, absorbance at 450 nm.
Procedure, shortened: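 Plates coated with […] human PD-L1 overnight at 4° C, blocked, then 1:5 serial compound dilutions added with human PD-1 […] 0.31 μg/mL for 1 h at 37° C. Bound PD-1 detected with streptavidin-HRP and TMB (20 min, 37° C); absorbance read at 450 nm after H2SO4 stop.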

Sequence of human PD-L1 (Q9NZQ7 19-239): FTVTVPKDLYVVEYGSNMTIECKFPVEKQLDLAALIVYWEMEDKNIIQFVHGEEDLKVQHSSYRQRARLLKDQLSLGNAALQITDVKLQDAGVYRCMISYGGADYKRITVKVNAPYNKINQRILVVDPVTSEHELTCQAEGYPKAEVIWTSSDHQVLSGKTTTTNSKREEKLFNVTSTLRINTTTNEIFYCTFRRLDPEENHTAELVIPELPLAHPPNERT

IC50, < 10 nM:
COc1cc(-c2cccc(-c3cccc(NC(=O)c4cn(C)c(=O)n(C)c4=O)c3C)c2Cl)cc(F)c1CN[C@H]1CCOC[C@@H]1O [Example 2.089]
COc1cc(-c2cccc(-c3cccc(NC(=O)c4cn(C)c(=O)n(C)c4=O)c3C)c2Cl)cc(F)c1CN[C@@H]1COC[C@H]1O [Example 2.090]
COc1cc(-c2cccc(-c3cccc(NC(=O)c4cn(C)c(=O)n(C)c4=O)c3Cl)c2F)cc(F)c1CN[C@@H]1CCOC[C@@H]1O [Example 2.091]
COc1cc(-c2cccc(-c3cccc(NC(=O)c4cn(C)c(=O)n(C)c4=O)c3C)c2Cl)cc(F)c1CN[C@H]1COC[C@@H]1O [Example 2.092]
COc1cc(-c2cccc(-c3cccc(NC(=O)c4cn(C)c(=O)n(C)c4=O)c3C)c2Cl)cc(F)c1CN[C@H]1COC[C@H]1O [Example 2.093]
COc1cc(-c2cccc(-c3cccc(NC(=O)c4cn(C)c(=O)n(C)c4=O)c3C)c2Cl)cc(F)c1CN[C@@H]1COC[C@@H]1O [Example 2.094]
COc1cc(-c2cccc(-c3cccc(NC(=O)c4cn(C)c(=O)n(C)c4=O)c3C)c2F)cc(F)c1CN[C@H]1CCOC[C@@H]1O [Example 2.095]
COc1cc(-c2cccc(-c3cccc(NC(=O)c4cn(C)c(=O)n(C)c4=O)c3C)c2C)cc(F)c1CN[C@H]1CCOC[C@@H]1O [Example 2.096]
COc1cc(-c2cccc(-c3cccc(NC(=O)c4cn(C)c(=O)n(C)c4=O)c3C)c2C)cc(F)c1CN[C@H]1CCOC[C@H]1O [Example 2.097]
COc1cc(-c2cccc(-c3cccc(NC(=O)c4cn(C)c(=O)n(C)c4=O)c3C)c2Cl)cc(F)c1CN[C@@H]1CCOC1 [Example 2.098]
COc1cc(-c2cccc(-c3cccc(NC(=O)c4cn(C)c(=O)n(C)c4=O)c3C)c2F)cc(F)c1CN[C@@H]1CCOC[C@H]1O [Example 2.099]
COc1cc(-c2cccc(-c3cccc(NC(=O)c4cn(C)c(=O)n(C)c4=O)c3Cl)c2C)cc(F)c1CN(C)C[C@@H]1CCC(=O)N1 [Example 2.100]
COc1cc(-c2cccc(-c3cccc(NC(=O)c4cn(C)c(=O)n(C)c4=O)c3C)c2Cl)cc(F)c1CN[C@@H]1CCC(=O)NC1 [Example 2.101]
COc1cc(-c2cccc(-c3cccc(NC(=O)c4cn(C)c(=O)n(C)c4=O)c3C)c2Cl)cc(F)c1CN[C@@H]1CCOC[C@H]1O [Example 2.102]
COc1cc(-c2cccc(-c3cccc(NC(=O)c4cn(C)c(=O)n(C)c4=O)c3Cl)c2C)cc(F)c1CN[C@H]1CCOC[C@H]1O [Example 2.103]
COc1cc(-c2cccc(-c3cccc(NC(=O)c4cn(C)c(=O)n(C)c4=O)c3C)c2Cl)cc(F)c1CN[C@H]1CCOC[C@H]1O [Example 2.104]
COc1cc(-c2cccc(-c3cccc(NC(=O)c4cn(C)c(=O)n(C)c4=O)c3C)c2F)cc(F)c1CN[C@H]1CCOC[C@H]1O [Example 2.105]
COc1cc(-c2cccc(-c3cccc(NC(=O)c4cn(C)c(=O)n(C)c4=O)c3F)c2Cl)cc(F)c1CN[C@@H]1CCOC[C@@H]1O [Example 2.106]
COc1cc(-c2cccc(-c3cccc(NC(=O)c4cn(C)c(=O)n(C)c4=O)c3Cl)c2Cl)cc(F)c1CN[C@@H]1CCC(=O)NC1 [Example 2.107]
COc1cc(-c2cccc(-c3cccc(NC(=O)c4cn(C)c(=O)n(C)c4=O)c3Cl)c2Cl)cc(F)c1CNCC(C)(C)C(N)=O [Example 2.108]
COc1cc(-c2cccc(-c3cccc(Nc4nccc5nccnc45)c3Cl)c2Cl)cc(F)c1CN1CC(C)(C(=O)O)C1 [Example 2.109]
COc1cc(-c2cccc(-c3cccc(Nc4nccc5nccnc45)c3Cl)c2Cl)cc(F)c1CN[C@@H]1COC[C@@H]1O [Example 2.110]
COc1cc(-c2cccc(-c3cccc(Nc4nccc5nccnc45)c3C)c2Cl)cc(F)c1CNCC1(O)CC1 [Example 2.111]
COc1cc(-c2cccc(-c3cccc(Nc4nccc5nccnc45)c3C)c2Cl)cc(F)c1CNCC(C)(C)O [Example 2.112]
COc1cc(-c2cccc(-c3cccc(Nc4nccc5nccnc45)c3C)c2Cl)cc(F)c1CNCC(C)(C)C(N)=O [Example 2.113]
COc1cc(-c2cccc(-c3cccc(Nc4nccc5nccnc45)c3C)c2Cl)cc(F)c1CN[C@H]1CCOC[C@H]1O [Example 2.114]
COc1cc(-c2cccc(-c3cccc(Nc4nccc5nccnc45)c3C)c2Cl)cc(F)c1CN[C@@H]1COC[C@@H]1O [Example 2.115]
COc1cc(-c2cccc(-c3cccc(Nc4nccc5nccnc45)c3C)c2Cl)cc(F)c1CN[C@H]1CCC(=O)NC1 [Example 2.116]
